Measurements taken from patent US20230399320A1, “NOVEL CAPSID ASSEMBLY INHIBITOR” (Pelemed Co., Ltd., priority 2020, published 2023).
Like-named read-outs stand apart in the source and are kept apart here.

Tests used:
[1] = target: T1, Cp149 (truncated form of a HBV core protein) (Hepatitis B virus genotype D subtype ayw, UniProt P03146); test: Protein based assay: immunoblot analysis of in vitro HBV capsid assembly; type: biochemical; details: for inhibition at 10 µM: read-out: Protein based assay (% inhibition, 10 μM)
T1 construct: Cp149 (amino acids 1-149) is a truncated form of a HBV core protein; histidine tag (cleaved yes); made in house; host or cells: Escherichia coli BL21(DE3)
Description: Cp149 (amino acids 1-149) is a truncated form of a HBV core protein. It was expressed in Escherichia coli, and the expressed protein was purified. The recombinant Cp149 was expressed in E. coli BL21(DE3) cells cultured in LB medium at 37° C. When the culture reached an OD600 of 0.7 to 0.8, expression of the culture was induced with 0.5 mM isopropyl-β-d-thiogalactopyranoside and the culture was cooled to 16° C. After 16 hours, the cells were harvested, flash-frozen in liquid nitrogen, and stored at −80° C. To purify Cp149, thawed cells were resuspended in lysis buffer (20 mM Tris-HCl pH 9.0, 200 mM NaCl, 10 mM imidazole, 10 μg per mL DNaseI, 1 mM phenylmethylsulfonyl fluoride), and treated with ultrasonic waves. The supernatant was loaded onto Ni-NTA affinity resin. Proteins were eluted using a 20 mM to 500 mM imidazole gradient dissolved in lysis buffer. After removing the histidine tag with thrombin, the protein was further purified by HiTrap Q anion exchange chromatography (17115401, GE Healthcare).
To determine the effect on in vitro Cp149 assembly, compounds of the present invention were added to the Cp149-containing suspension. The final concentration of Cp149 was 1 mg per mL, and the compounds of the present invention were added at concentrations of 0.1 to 10 μM. The suspension was mixed with reaction buffer (150 mM HEPES, pH 7.5, 15 mM NaCl) added in a 2:1 ratio. In vitro assembly was performed at 37° C. for 1 hour, and HBV capsid was detected by immunoblot analysis using an anti-HBV core antibody (1:2000, B0586, Dako).

HBV DNA = test: Quantitative PCR for measuring HBV DNA in cells (HBV DNA quantification); type: cell-based
Description: After treating cells with the indicated compounds, HBV DNA secreted into the medium and intracellular HBV DNA were extracted, purified, and quantified by quantitative PCR. To isolate the secreted HBV DNA, the culture medium was recovered and centrifuged at 15,000×g to remove debris. The medium was diluted 1:1 with phosphate-buffered saline (PBS), and 1 M NaOH solution was added to a final concentration of 0.1 M. The mixture was incubated at 37° C. for 1 hour. The protein was denatured by adding 2M Tris-HCl solution (pH 7.5) to a final concentration of 0.2 M and incubating at 98° C. for 5 minutes. The protein precipitation was removed by centrifugation at 15,000×g, and the supernatant was subjected to PCR with HBV DNA primer and probe sets:
Forward: 5′-[…]-3′, Reverse: 5′-[…]-3′, Probe: 5′-[…]-3′.

[2] = Hepatitis B virus, read-out: HBV DNA quantification (IC50 μM)

T1 sequence (P03146 1-149): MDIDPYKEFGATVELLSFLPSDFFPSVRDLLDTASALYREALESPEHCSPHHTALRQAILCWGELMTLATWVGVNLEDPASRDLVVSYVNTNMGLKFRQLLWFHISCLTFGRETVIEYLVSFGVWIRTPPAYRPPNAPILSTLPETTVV

With `CSc1nc(Cl)cc(N(CCc2ccc(F)cc2)c2ccc(N3CCOCC3)cc2)n1` [Compound 10b, 6-chloro-N-(4-fluorophenethyl)-2-(methylthio)-N-(4-morpholinophenyl)pyrimidin-4-amine] the inhibition at 10 µM [1] was 76% and the IC50 (HBV DNA; [2]) was greater than 10 µM.

Molecule `CC(C)(C)OC(=O)N1CCN(c2cc(NCc3ccc(F)cc3)nc(S(C)(=O)=O)n2)CC1` [Compound 22b, tert-butyl 4-(6-(4-fluorobenzylamino)-2-(methylsulfonyl)pyrimidin-4-yl)piperazine-1-carboxylate] has an inhibition at 10 µM [1] of 40% and an IC50 (HBV DNA; [2]) of 0.549 µM.

With `CC(C)(C)OC(=O)N1CCN(c2cc(Nc3ccc(Br)cc3)nc(S(C)(=O)=O)n2)CC1` [Compound 22e, tert-butyl 4-(6-(4-bromophenylamino)-2-(methylsulfonyl)pyrimidin-4-yl)piperazine-1-carboxylate] the inhibition at 10 µM [1] was 67% and the IC50 (HBV DNA; [2]) was 0.652 µM.

In the case of `CS(=O)(=O)c1nc(Nc2ccc(F)cc2)cc(N2CCNCC2)n1` [Compound 26a, N-(4-fluorophenyl)-2-(methylsulfonyl)-6-(piperazin-1-yl)pyrimidin-4-amine], the inhibition at 10 µM [1] is reported as 86% and the IC50 (HBV DNA; Hepatitis B virus; read-out: HBV DNA quantification (IC50 μM)) is reported as 0.962 µM.

Work on `CS(=O)(=O)c1nc(Nc2ccc(F)c(Cl)c2)cc(N2CCC(N)CC2)n1` [Compound 26i, 6-(4-aminopiperidin-1-yl)-N-(3-chloro-4-fluorophenyl)-2-(methylsulfonyl)pyrimidin-4-amine] yielded an inhibition at 0.1 µM ([1]; read-out: Protein based assay (% inhibition), 0.1 μM) of 52%, an inhibition at 1 µM ([1]; read-out: Protein based assay (% inhibition), 1 μM) of 99% and an IC50 (HBV DNA; [2]) of 0.181 µM.
